Legend:
[1] = human, 1 %
Experimental: The enamel softening method is used to determine the potential of oral care compositions to damage (or not to damage) dental enamel with repeated exposure.
A core of sound human enamel with a diameter of 3-4 mm was extracted from whole human teeth. The cores were mounted in dental acrylic and the surfaces were ground using 600 grit paper. Increasingly fine lapping papers were then used to polish the surface to a 1 um polish. Samples were sonicated in deionized water for 30 min. Enamel specimens were then rinsed with deionized water and wiped to remove any residual polish. Each enamel specimen was inspected and samples with large cracks or uneven calcification were discarded. […]
Also on the day before the experiment, the Vickers hardness of each enamel specimen was measured using a hardness indenter at three separate locations spread across the enamel surface. A 50g load was applied for 10 seconds, and the diagonal lengths of the resulting indents were measured using a 20× magnification objective. […]
On the day following the cycling experiment, the post-cycling hardness was obtained for each specimen using a similar procedure to that described for the pre-cycling hardness measurements. The change in hardness was calculated for each specimen by subtracting the pre-cycling hardness from the post-cycling hardness measurement. […]

[2] = Slurry pH of composition; format: physicochemical; conditions: Table 10, treatments of the enamel softening study (1:3 slurry of toothpaste to water)
Excerpt: The pH of the oral care compositions as described herein can be from about 4 to about 7, from about 4 to about 6, from about 4.5 to about 6.5, or from about 4.5 to about 5.5. The pH of a mouthrinse solution can be determined as the pH of the neat solution. The pH of a dentifrice composition can be determined as a slurry pH, which is the pH of a mixture of the dentifrice composition and water, such as a 1:4, 1:3, or 1:2 mixture of the dentifrice composition and water.

O=C(O)CC(O)(CC(=O)O)C(=O)O [1% Citric Acid, citric acid]
Δ SMH (change in surface microhardness) [1]: 175.68 | Slurry pH [2]: 2.19

Source: patent US20250057743A1, “Oral Care Compositions Comprising Dicarboxylic Acid” (The Procter & Gamble Company, priority 2020, published 2025)
